In PubChem BioAssay (NCI):
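Five compound concentrations were applied to cells in 96-well plates for 48 hours; endpoints were derived by simple linear interpolation of the resulting dose-response curve. TGI is the concentration that stops growth completely.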

Tests used:
Experiment in all cases: inhibition of tumour cell growth, NCI panel, 48 h
OVCAR-5 ovarian = system: OVCAR-5 ovarian
OVCAR-8 ovarian = system: OVCAR-8 ovarian
HOP-92 NSCLC = system: HOP-92 NSCLC
MCF7 breast = system: MCF7 breast
A549 NSCLC = system: A549 NSCLC
HS 578T breast = system: HS 578T breast
SF-268 CNS = system: SF-268 CNS
BT-549 breast = system: BT-549 breast
MOLT-4 leukemia = system: MOLT-4 leukemia
HCT-116 colon = system: HCT-116 colon
RPMI-8226 leukemia = system: RPMI-8226 leukemia
DU-145 prostate = system: DU-145 prostate
SK-MEL-2 melanoma = system: SK-MEL-2 melanoma
MDA-MB-435 = system: MDA-MB-435
SNB-75 CNS = system: SNB-75 CNS
U251 CNS = system: U251 CNS
LOX IMVI melanoma = system: LOX IMVI melanoma
ACHN renal = system: ACHN renal
MDA-MB-231 breast = system: MDA-MB-231 breast
K-562 leukemia = system: K-562 leukemia
OVCAR-4 ovarian = system: OVCAR-4 ovarian
UACC-257 melanoma = system: UACC-257 melanoma
A498 renal = system: A498 renal
T-47D breast = system: T-47D breast
HOP-62 NSCLC = system: HOP-62 NSCLC
CAKI-1 renal = system: CAKI-1 renal
TK-10 renal = system: TK-10 renal
MDA-N = system: MDA-N
SW-620 colon = system: SW-620 colon
NCI-H460 lung = system: NCI-H460 lung
NCI-H522 lung = system: NCI-H522 lung
NCI-H226 lung = system: NCI-H226 lung
PC-3 prostate = system: PC-3 prostate
HT29 colon = system: HT29 colon
SK-MEL-5 melanoma = system: SK-MEL-5 melanoma
UO-31 renal = system: UO-31 renal
786-0 renal = system: 786-0 renal
SF-539 CNS = system: SF-539 CNS
RXF 393 renal = system: RXF 393 renal
KM12 colon = system: KM12 colon
SK-MEL-28 melanoma = system: SK-MEL-28 melanoma
HCT-15 colon = system: HCT-15 colon
M14 melanoma = system: M14 melanoma
NCI-H23 lung = system: NCI-H23 lung
HL-60(TB) leukemia = system: HL-60(TB) leukemia
IGROV1 ovarian = system: IGROV1 ovarian
OVCAR-3 ovarian = system: OVCAR-3 ovarian
SR leukemia = system: SR leukemia
EKVX NSCLC = system: EKVX NSCLC
NCI/ADR-RES ovarian = system: NCI/ADR-RES ovarian
SF-295 CNS = system: SF-295 CNS
CCRF-CEM leukemia = system: CCRF-CEM leukemia
HCC-2998 colon = system: HCC-2998 colon
SN12C renal = system: SN12C renal
COLO 205 colon = system: COLO 205 colon
UACC-62 melanoma = system: UACC-62 melanoma
SNB-19 CNS = system: SNB-19 CNS
SK-OV-3 ovarian = system: SK-OV-3 ovarian

Question: What does the source list for `CCc1nn(CN2CCOCC2)c(=S)n1/N=C/c1ccc(-c2ccc(Cl)cc2)o1`?
Answer: TGI (OVCAR-5 ovarian): > 100 µM; TGI (OVCAR-8 ovarian): > 100 µM; TGI (HOP-92 NSCLC): > 100 µM; TGI (MCF7 breast): > 100 µM; TGI (A549 NSCLC): > 100 µM; TGI (HS 578T breast): > 100 µM; TGI (SF-268 CNS): > 100 µM; TGI (BT-549 breast): > 100 µM; TGI (MOLT-4 leukemia): > 100 µM; TGI (HCT-116 colon): > 100 µM; TGI (RPMI-8226 leukemia): > 100 µM; TGI (DU-145 prostate): > 100 µM; TGI (SK-MEL-2 melanoma): > 100 µM; TGI (MDA-MB-435): > 100 µM; TGI (SNB-75 CNS): > 100 µM; TGI (U251 CNS): > 100 µM; TGI (LOX IMVI melanoma): > 100 µM; TGI (ACHN renal): > 100 µM; TGI (MDA-MB-231 breast): > 100 µM; TGI (K-562 leukemia): > 100 µM; TGI (OVCAR-4 ovarian): > 100 µM; TGI (UACC-257 melanoma): > 100 µM; TGI (A498 renal): > 100 µM; TGI (T-47D breast): > 100 µM; TGI (HOP-62 NSCLC): > 100 µM; TGI (CAKI-1 renal): > 100 µM; TGI (TK-10 renal): > 100 µM; TGI (MDA-N): > 100 µM; TGI (SW-620 colon): > 100 µM; TGI (NCI-H460 lung): > 100 µM; TGI (NCI-H522 lung): > 100 µM; TGI (NCI-H226 lung): > 100 µM; TGI (PC-3 prostate): > 100 µM; TGI (HT29 colon): > 100 µM; TGI (SK-MEL-5 melanoma): > 100 µM; TGI (UO-31 renal): > 100 µM; TGI (786-0 renal): > 100 µM; TGI (SF-539 CNS): > 100 µM; TGI (RXF 393 renal): > 100 µM; TGI (KM12 colon): > 100 µM; TGI (SK-MEL-28 melanoma): > 100 µM; TGI (HCT-15 colon): > 100 µM; TGI (M14 melanoma): > 100 µM; TGI (NCI-H23 lung): > 100 µM; TGI (HL-60(TB) leukemia): > 100 µM; TGI (IGROV1 ovarian): > 100 µM; TGI (OVCAR-3 ovarian): > 100 µM; TGI (SR leukemia): > 100 µM; TGI (EKVX NSCLC): > 100 µM; TGI (NCI/ADR-RES ovarian): > 100 µM; TGI (SF-295 CNS): > 100 µM

Question: Which TGI (OVCAR-5 ovarian) does the source give for `COC1=CC(=O)C2=C(C1=O)[C@H]1CC[C@]3(C)[C@@H](O)CC[C@H]3[C@@H]1CC2` here?
Answer: 33.6 µM

Question: And the TGI (OVCAR-8 ovarian)?
Answer: 31.6 µM

Question: What about the TGI (HOP-92 NSCLC) of the same compound?
Answer: 37.5 µM

Question: And the TGI (MCF7 breast)?
Answer: 30.7 µM

Question: And the TGI (A549 NSCLC)?
Answer: 34.7 µM

Question: And the TGI (HS 578T breast)?
Answer: 42.7 µM

Question: What about the TGI (SF-268 CNS) of the same compound?
Answer: 31 µM

Question: What about the TGI (CCRF-CEM leukemia) of the same compound?
Answer: 86.2 µM

Question: And the TGI (BT-549 breast)?
Answer: 31.8 µM

Question: What about the TGI (MOLT-4 leukemia) of the same compound?
Answer: 20.8 µM

Question: And the TGI (HCT-116 colon)?
Answer: 30.7 µM

Question: What about the TGI (RPMI-8226 leukemia) of the same compound?
Answer: 44.4 µM

Question: And the TGI (HCC-2998 colon)?
Answer: 42.8 µM

Question: And the TGI (SN12C renal)?
Answer: 30.6 µM

Question: What about the TGI (COLO 205 colon) of the same compound?
Answer: 22.5 µM

Question: What about the TGI (DU-145 prostate) of the same compound?
Answer: 31 µM

Question: And the TGI (SK-MEL-2 melanoma)?
Answer: 26.8 µM

Question: And the TGI (MDA-MB-435)?
Answer: 33.3 µM

Question: What about the TGI (SNB-75 CNS) of the same compound?
Answer: 36.5 µM

Question: What about the TGI (UACC-62 melanoma) of the same compound?
Answer: 31.2 µM

Question: What about the TGI (U251 CNS) of the same compound?
Answer: 31.3 µM

Question: And the TGI (LOX IMVI melanoma)?
Answer: 35.8 µM

Question: What about the TGI (SNB-19 CNS) of the same compound?
Answer: 73.2 µM

Question: And the TGI (ACHN renal)?
Answer: 31.9 µM

Question: And the TGI (MDA-MB-231 breast)?
Answer: 5.84 µM

Question: And the TGI (K-562 leukemia)?
Answer: 83.8 µM

Question: What about the TGI (OVCAR-4 ovarian) of the same compound?
Answer: 30.9 µM

Question: What about the TGI (SK-OV-3 ovarian) of the same compound?
Answer: > 100 µM

Question: And the TGI (UACC-257 melanoma)?
Answer: 30 µM

Question: And the TGI (A498 renal)?
Answer: > 100 µM

Question: What about the TGI (T-47D breast) of the same compound?
Answer: 38.4 µM

Question: What about the TGI (HOP-62 NSCLC) of the same compound?
Answer: 29.7 µM

Question: And the TGI (CAKI-1 renal)?
Answer: 57.4 µM

Question: And the TGI (TK-10 renal)?
Answer: 63.8 µM

Question: And the TGI (MDA-N)?
Answer: 32.8 µM

Question: What about the TGI (SW-620 colon) of the same compound?
Answer: > 100 µM

Question: And the TGI (NCI-H460 lung)?
Answer: 35.8 µM

Question: What about the TGI (NCI-H522 lung) of the same compound?
Answer: 31.8 µM

Question: What about the TGI (NCI-H226 lung) of the same compound?
Answer: 31.5 µM

Question: And the TGI (PC-3 prostate)?
Answer: 30 µM

Question: What about the TGI (HT29 colon) of the same compound?
Answer: 19 µM

Question: And the TGI (SK-MEL-5 melanoma)?
Answer: 28.8 µM

Question: What about the TGI (UO-31 renal) of the same compound?
Answer: 43.5 µM

Question: And the TGI (786-0 renal)?
Answer: 37.8 µM

Question: What about the TGI (SF-539 CNS) of the same compound?
Answer: 30.6 µM

Question: What about the TGI (RXF 393 renal) of the same compound?
Answer: 46.5 µM

Question: And the TGI (KM12 colon)?
Answer: 32.3 µM

Question: And the TGI (SK-MEL-28 melanoma)?
Answer: 38.3 µM

Question: And the TGI (HCT-15 colon)?
Answer: 31.9 µM

Question: What about the TGI (M14 melanoma) of the same compound?
Answer: 31.3 µM

Question: And the TGI (NCI-H23 lung)?
Answer: 56.8 µM

Question: And the TGI (HL-60(TB) leukemia)?
Answer: 46.5 µM

Question: And the TGI (IGROV1 ovarian)?
Answer: 44.7 µM

Question: And the TGI (OVCAR-3 ovarian)?
Answer: 32.3 µM

Question: What about the TGI (SR leukemia) of the same compound?
Answer: 55.4 µM

Question: And the TGI (EKVX NSCLC)?
Answer: 30.5 µM

Question: What about the TGI (NCI/ADR-RES ovarian) of the same compound?
Answer: 84 µM

Question: And the TGI (SF-295 CNS)?
Answer: 30.3 µM
